As usually defined, the IC50 is the concentration at which inhibition is half-maximal. Low values mean inhibition by little substance, high ones a need for much substance.

Data on one molecule can be found in ChEMBL document CHEMBL1148200, “Kulokekahilide-2, a cytotoxic depsipeptide from a cephalaspidean mollusk Philinopsis speciosa” (J Nat Prod, 2004).

Assay [1] relates to MDA-MB-435. As to the kind of experiment: Cytotoxicity against human MDA-MB-435 cells. The class given is functional, cell-based.
The subject of assay [2] is P388. As to the kind of experiment: Cytotoxicity against mouse P388 cells. The class given is functional, cell-based.
Assay [3] has as its system A10. As to the kind of experiment: Cytotoxicity against rat A10 cells. The class given is cell-based.
Assay [4] concerns SK-OV-3. As to the kind of experiment: Cytotoxicity against human SKOV3 cells. Format: functional, cell-based.

The structures appear in SMILES notation.

In the case of `C/C=C(\C)[C@H]1OC(=O)[C@H](C)NC(=O)[C@H]([C@@H](C)CC)NC(=O)CN(C)C(=O)[C@H](Cc2ccccc2)N(C)C(=O)[C@@H](C)NC(=O)[C@@H](CC(C)C)OC(=O)/C(C)=C/C[C@H](O)[C@@H]1C`, the IC50 in assay [1] stood at 14.6 nM; in assay [2], 4.2 nM; in assay [3] it was 59.1 nM; in assay [4], 7.5 nM.
